Laboratory results reported in patent US9023847B2, “Azaheterocyclic compounds” (Merck Patent GmbH, priority 2009, dated 2015).

Molecular target: T1, P70S6K (T412E mutant, Millipore) (Homo sapiens, UniProt P23443, T412E)
T1 construct: purchased Millipore
Assay: p70S6K enzyme assay
Assay type: biochemical
Settings: Table 1; 3 nM P70S6K, 24 μM ATP, 90 min at 25° C.; read-out: p70S6K inhibition (IC50)
Summary of the method: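 T412E-mutant P70S6K (3 nM) with 24 μM ATP and 1 μM FITC-AHA-AKRRRLSSLRA-OH S6-derived peptide in 100 mM Hepes pH 7.5, 5 mM MgCl2, 1 mM DTT, 0.015% Brij; 90 min at 25° C, EDTA stop. Phosphorylated product and substrate peptide separated and quantified by microfluidic capillary electrophoresis (Caliper LabChip 3000).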

T1 sequence (P23443 whole entry T412E): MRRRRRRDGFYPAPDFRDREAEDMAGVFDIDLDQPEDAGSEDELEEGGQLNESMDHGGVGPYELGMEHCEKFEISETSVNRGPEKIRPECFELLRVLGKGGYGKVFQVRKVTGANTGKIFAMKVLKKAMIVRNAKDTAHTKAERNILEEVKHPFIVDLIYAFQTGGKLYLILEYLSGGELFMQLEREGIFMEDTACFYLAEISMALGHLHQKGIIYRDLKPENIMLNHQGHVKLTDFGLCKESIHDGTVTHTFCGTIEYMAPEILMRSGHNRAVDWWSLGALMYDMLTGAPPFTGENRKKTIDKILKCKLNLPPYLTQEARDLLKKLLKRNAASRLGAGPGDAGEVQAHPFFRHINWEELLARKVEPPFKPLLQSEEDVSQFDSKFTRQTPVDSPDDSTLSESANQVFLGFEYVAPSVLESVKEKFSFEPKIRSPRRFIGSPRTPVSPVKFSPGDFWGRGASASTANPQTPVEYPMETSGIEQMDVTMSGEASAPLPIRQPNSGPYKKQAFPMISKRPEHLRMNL

| Structure (SMILES) | IC50 |
| --- | --- |
| CC(C)NC(=O)c1ccccc1Nc1ccnc2[nH]ccc12 [Example 155, N-Isopropyl-2-(1H-pyrrolo[2,3-b]pyridin-4-ylamino)-benzamide] | 100 to 1000 nM |
| CC(C)(C)OC(=O)N1CCC(NC(=O)c2sccc2Nc2ccnc3[nH]ccc23)C1 (stereo not drawn) [Example 156, 3-{[3-(1H-Pyrrolo[2,3-b]pyridin-4-ylamino)-thiophene-2-carbonyl]-amino}-pyrrolidine-1-carboxylic acid tert-butyl ester] | 1000 to 10000 nM |
| CC(C)(C)OC(=O)N(CCNC(=O)c1occc1Nc1ncnc2[nH]ccc12)Cc1ccccc1 [Example 157, Benzyl-(2-{[3-(7H-pyrrolo[2,3-d]pyrimidin-4-ylamino)-furan-2-carbonyl]-amino}-ethyl)-carbamic acid tert-butyl ester] | 1000 to 10000 nM |

Same assay, conditions: class symbol; 3 nM P70S6K, 24 μM ATP; read-out: IC50 (p70S6K)

| Structure (SMILES) | IC50 |
| --- | --- |
| COc1ccccc1C(CN(C)C)NC(=O)c1sccc1Nc1ccnc2[nH]ccc12 (stereo not drawn) [Example 158, 3-(1H-Pyrrolo[2,3-b]pyridin-4-ylamino)-thiophene-2-carboxylic acid [2-dimethylamino-1-(2-methoxy-phenyl)-ethyl]-amide] | 100 to 1000 nM |
| CN(C)CC(NC(=O)c1sccc1Nc1ccnc2[nH]ccc12)c1cccc(Cl)c1 (stereo not drawn) [Example 159, 3-(1H-Pyrrolo[2,3-b]pyridin-4-ylamino)-thiophene-2-carboxylic acid [1-(3-chloro-phenyl)-2-dimethylamino-ethyl]-amide] | < 100 nM |
| COc1cccc(C(CN(C)C)NC(=O)c2sccc2Nc2ccnc3[nH]ccc23)c1 (stereo not drawn) [Example 160, 3-(1H-Pyrrolo[2,3-b]pyridin-4-ylamino)-thiophene-2-carboxylic acid [2-dimethylamino-1-(3-methoxy-phenyl)-ethyl]-amide] | < 100 nM |
| O=C(Nc1cccc(CNC(=O)c2sccc2Nc2ccnc3[nH]ccc23)c1)c1ccnc(N2CCCC2)c1 [Example 161, 2-Pyrrolidin-1-yl-N-[3-({[3-(1H-pyrrolo[2,3-b]pyridin-4-ylamino)-thiophene-2-carbonyl]-amino}-methyl)-phenyl]-isonicotinamide] | < 100 nM |
| CN(C)c1cc(C(=O)Nc2cccc(CNC(=O)c3sccc3Nc3ccnc4[nH]ccc34)c2)ccn1 [Example 162, 2-Dimethylamino-N-[3-({[3-(1H-pyrrolo[2,3-b]pyridin-4-ylamino)-thiophene-2-carbonyl]-amino}-methyl)-phenyl]-isonicotinamide] | < 100 nM |
| CN1CCN(c2cc(C(=O)Nc3cccc(CNC(=O)c4sccc4Nc4ccnc5[nH]ccc45)c3)ccn2)CC1 [Example 163, 2-(4-Methyl-piperazin-1-yl)-N-[3-({[3-(1H-pyrrolo[2,3-b]pyridin-4-ylamino)-thiophene-2-carbonyl]-amino}-methyl)-phenyl]-isonicotinamide] | < 100 nM |
| O=C(Nc1cccc(CNC(=O)c2sccc2Nc2ccnc3[nH]ccc23)c1)c1ccnc(N2CCOCC2)c1 [Example 164, 2-Morpholin-4-yl-N-[3-({[3-(1H-pyrrolo[2,3-b]pyridin-4-ylamino)-thiophene-2-carbonyl]-amino}-methyl)-phenyl]-isonicotinamide] | < 100 nM |
| CCNc1cc(C(=O)Nc2cccc(CNC(=O)c3sccc3Nc3ccnc4[nH]ccc34)c2)ccn1 [Example 165, 2-Ethylamino-N-[3-({[3-(1H-pyrrolo[2,3-b]pyridin-4-ylamino)-thiophene-2-carbonyl]-amino}-methyl)-phenyl]-isonicotinamide] | < 100 nM |
| CN(C)CC(NC(=O)c1sccc1Nc1ccnc2[nH]ccc12)c1ccc(F)cc1 (stereo not drawn) [Example 166, 3-(1H-Pyrrolo[2,3-b]pyridin-4-ylamino)-thiophene-2-carboxylic acid [2-dimethylamino-1-(4-fluoro-phenyl)-ethyl]-amide] | < 100 nM |
| CNCC(NC(=O)c1sccc1Nc1ccnc2[nH]ccc12)c1cccc(F)c1 (stereo not drawn) [Example 167, 3-(1H-Pyrrolo[2,3-b]pyridin-4-ylamino)-thiophene-2-carboxylic acid [1-(3-fluoro-phenyl)-2-methylamino-ethyl]-amide] | < 100 nM |
| CNCC(NC(=O)c1sccc1Nc1ccnc2[nH]ccc12)c1cccc(Cl)c1 (stereo not drawn) [Example 168, 3-(1H-Pyrrolo[2,3-b]pyridin-4-ylamino)-thiophene-2-carboxylic acid [1-(3-chloro-phenyl)-2-methylamino-ethyl]-amide] | < 100 nM |
| CNCC(NC(=O)c1sccc1Nc1ccnc2[nH]ccc12)c1ccccc1 (stereo not drawn) [Example 169, 3-(1H-Pyrrolo[2,3-b]pyridin-4-ylamino)-thiophene-2-carboxylic acid (2-methylamino-1-phenyl-ethyl)-amide] | < 100 nM |
| NC[C@@H](NC(=O)c1sccc1Nc1ccnc2[nH]ccc12)c1ccccc1 [Example 170, 3-(1H-Pyrrolo[2,3-b]pyridin-4-ylamino)-thiophene-2-carboxylic acid ((S)-2-amino-1-phenyl-ethyl)-amide] | < 100 nM |
| NC[C@@H](NC(=O)c1sccc1Nc1ccnc2[nH]ccc12)c1cccc(F)c1 [Example 171, 3-(1H-Pyrrolo[2,3-b]pyridin-4-ylamino)-thiophene-2-carboxylic acid [(S)-2-amino-1-(3-fluoro-phenyl)-ethyl]-amide] | < 100 nM |
| O=C(NCc1ccccc1)c1sccc1Nc1ncnc2[nH]ccc12 [Example 172, 3-(7H-Pyrrolo[2,3-d]pyrimidin-4-ylamino)-thiophene-2-carboxylic acid benzylamide] | < 100 nM |
| O=C(NCc1cccc(Cl)c1)c1sccc1Nc1ncnc2[nH]ccc12 [Example 173, 3-(7H-Pyrrolo[2,3-d]pyrimidin-4-ylamino)-thiophene-2-carboxylic acid 3-chloro-benzylamide] | < 100 nM |
| O=C(NCCc1ccccc1)c1sccc1Nc1ncnc2[nH]ccc12 [Example 174, 3-(7H-Pyrrolo[2,3-d]pyrimidin-4-ylamino)-thiophene-2-carboxylic acid phenethylamide] | < 100 nM |
| O=C(NCCc1cccc(F)c1)c1sccc1Nc1ncnc2[nH]ccc12 [Example 175, 3-(7H-Pyrrolo[2,3-d]pyrimidin-4-ylamino)-thiophene-2-carboxylic acid [2-(3-fluorophenyl)-ethyl]-amide] | < 100 nM |
| O=C(NCc1cccc(Cl)c1)c1occc1Nc1ncnc2[nH]ccc12 [Example 176, 3-(7H-Pyrrolo[2,3-d]pyrimidin-4-ylamino)-furan-2-carboxylic acid 3-chloro-benzylamide] | < 100 nM |
| CC(C)(C)OC(=O)N(CCNC(=O)c1occc1Nc1ncnc2[nH]ccc12)Cc1ccccc1 [Example 177] | 1000 to 10000 nM |
| Cc1cc(Nc2ncnc3[nH]ccc23)c(C(=O)NCc2cccc(Cl)c2)s1 [Example 178, 5-Methyl-3-(7H-pyrrolo[2,3-d]pyrimidin-4-ylamino)-thiophene-2-carboxylic acid 3-chloro-benzylamide] | 100 to 1000 nM |
| O=C(NCCc1ccc(F)cc1)c1sccc1Nc1ncnc2[nH]ccc12 [Example 179, 3-(7H-Pyrrolo[2,3-d]pyrimidin-4-ylamino)-thiophene-2-carboxylic acid [2-(4-fluoro-phenyl)-ethyl]-amide] | < 100 nM |
| O=C(NCCc1ccc(Br)cc1)c1sccc1Nc1ncnc2[nH]ccc12 [Example 180, 3-(7H-Pyrrolo[2,3-d]pyrimidin-4-ylamino)-thiophene-2-carboxylic acid [2-(4-bromo-phenyl)-ethyl]-amide] | < 100 nM |
| Cc1ccccc1CCNC(=O)c1sccc1Nc1ncnc2[nH]ccc12 [Example 181, 3-(7H-Pyrrolo[2,3-d]pyrimidin-4-ylamino)-thiophene-2-carboxylic acid (2-o-tolyl-ethyl)-amide] | < 100 nM |
| O=C(NCCc1cccc(Cl)c1)c1sccc1Nc1ncnc2[nH]ccc12 [Example 182, 3-(7H-Pyrrolo[2,3-d]pyrimidin-4-ylamino)-thiophene-2-carboxylic acid [2-(3-chloro-phenyl)-ethyl]-amide] | < 100 nM |
| O=C(NCCNCc1ccccc1)c1sccc1Nc1ncnc2[nH]ccc12 [Example 183, 3-(7H-Pyrrolo[2,3-d]pyrimidin-4-ylamino)-thiophene-2-carboxylic acid (2-benzylamino-ethyl)-amide] | < 100 nM |
| CC(C)(C)OC(=O)N1CCCC(NC(=O)c2sccc2Nc2ncnc3[nH]ccc23)C1 (stereo not drawn) [Example 184, 3-{[3-(7H-Pyrrolo[2,3-d]pyrimidin-4-ylamino)-thiophene-2-carbonyl]-amino}-piperidine-1-carboxylic acid tert-butyl ester] | 100 to 1000 nM |
| CNCCNC(=O)c1sccc1Nc1ncnc2[nH]ccc12 [Example 185, 3-(7H-Pyrrolo[2,3-d]pyrimidin-4-ylamino)-thiophene-2-carboxylic acid (2-methylamino-ethyl)-amide] | 100 to 1000 nM |
| O=C(NC1CCCNC1)c1sccc1Nc1ncnc2[nH]ccc12 (stereo not drawn) [Example 186, 3-(7H-Pyrrolo[2,3-d]pyrimidin-4-ylamino)-thiophene-2-carboxylic acid piperidin-3-ylamide] | < 100 nM |
| Cc1c[nH]c2ncnc(Nc3ccsc3C(=O)NCc3cccc(Cl)c3)c12 [Example 187, 3-(5-Methyl-7H-pyrrolo[2,3-d]pyrimidin-4-ylamino)-thiophene-2-carboxylic acid 3-chloro-benzylamide] | < 100 nM |
